ChEMBL document CHEMBL4425099, “Use of Osmotic Pumps to Establish the Pharmacokinetic-Pharmacodynamic Relationship and Define Desirable Human Performance Characteristics for Aggrecanase Inhibitors” (J Med Chem, 2016)
The source made the active and inactive calls. The calls are words filed in the database; no cut-off is given here.

Legend:
[1] = AUC in Lewis rat at 10 mg/kg, po; format: ADME, organism-based; details: in vivo
[2] = Cmax in Lewis rat plasma at 10 mg/kg, po; format: ADME, organism-based; parameters: dose 10 mg/kg, route oral
[3] = Plasma concentration in Lewis rat at 10 mg/kg, po bid measured after 8 hrs; format: ADME, organism-based
[4] = Plasma concentration in Lewis rat model of MIA at 10 mg/kg, po bid administered post 3 days MIA induction measured after 4 hrs of last dosage on day 7; format: ADME, organism-based
[5] = Plasma concentration in Lewis rat model of MIA at 30 mg/kg, po bid administered post 3 days MIA induction measured after 4 hrs of last dosage on day 7; format: ADME, organism-based
Rattus norvegicus [6] = test: Reduction in ADAMTS-4/ADAMTS-5 mediated aggrecan cleavage products in Lewis rat model of MIA assessed as aggrecanase-cleaved fragments at 30 mg/kg, po bid administered post 3 days MIA induction measured after 4 hrs of last dosage on day 7 by NITEGE sandwich ELISA; format: functional
Rattus norvegicus [7] = test: Reduction in ADAMTS-4/ADAMTS-5 mediated aggrecan cleavage products in Lewis rat model of MIA assessed as aggrecanase-cleaved fragments at 30 mg/kg, po qd administered post 3 days MIA induction measured after 4 hrs of last dosage on day 7 by NITEGE sandwich ELISA; format: functional

AUC [1] [µM·h]	Cmax [2] [µM]	concentration at 8 h [3] [µM]	concentration at 4 h [4] [µM]	concentration at 4 h [5] [µM]	SMILES	inhibition (Rattus norvegicus [6])	inhibition (Rattus norvegicus [7])
130	33	2.2	30	90	O=C1NC(=O)[C@](CNC(=O)c2cc3cc(Cl)ccc3o2)(c2nccs2)N1		
					C[C@@]1(O)CCCN(S(=O)(=O)c2ccc(OCc3ccc(F)cc3Cl)cc2)[C@H]1C(=O)NO	inactive	inactive
